Measurements: article PMC9959676 (Molecules, 2023)
Read-outs that look alike come from different tables or passages of the source.

Legend:
thoracic aorta segments = assay: Inhibition of phenylephrine-induced contraction on isolated aorta rings; set-up: species or system male Wistar rats; conditions: compounds 10^−4 M in organ bath, phenylephrine 10^−6 M, n = 5; for inhibition at 100 µM: Rattus norvegicus, read-out: %ge inh. of Phenylephrine Cont. (±SEM)
Experimental: (§1) Cervical disruption was used to eliminate male Wistar rats weighing 200 g and 300 g. The thoracic aorta segments (3 mm to 5 mm) were slightly pressed and […]. The tissues were placed in an organ bath filled with 10 mL of Krebs-Henseleit solution and kept at 37 °C. Then 95% oxygen and 5% carbon dioxide were passed through the above-mentioned solution. To record organ responses to phenylephrine, (10^−6 M) (Sigma, St. Louis, MO, USA) simulated contractions; isometric transducers and Gemini recorders (Ugo Basile, Varese, Italy) were assembled. Aortic rings were recon traced with phenylephrine (10^−6 M) and subjected to acetylcholine (10^−6 M) for recording endothelium-dependent relaxations (EDR). All synthesized compounds along with the standard (valsartan) were mixed in DMSO; whereas synthesized derivatives of concentration 10^−4 M were added in an organ bath. In conscious rats, systolic blood pressure was recorded by applying the tail-cuff method. Wistar rats of 200 g to 250 g weight were selected and divided into groups of five individuals. The chemicals were injected intraperitoneally at a dosage of 80 mg/kg body weight. The tail-cuff and a piezoelectric pulse sensor were coupled to a blood pressure analyzer and were positioned at the base of the tail (May 9610, Ankara, Turkey).
(§2) All results were presented as the mean of SEM. (n = 5) and test compounds were employed for statistical significance determination.

Pseudomonas aeruginosa = assay: Antibacterial agar-well diffusion; assay type: cell-based; conditions: sample 100 mg/5 mL in DMSO; ceftriaxone sodium 20 mg/10 mL; 37 °C, 24 h; 6 mm wells
Experimental: (§3) After sterilizing the Mueller Hinton agar medium on plates in an autoclave and allowing it to cool to roughly 45 °C, a 100 µL standard inoculum was aseptically mixed, chilled till 37 °C, and 6 mm wells were formed in the inoculated plates. The volume of 100 μL (100 mg/5 mL in DMSO), ceftriaxone sodium (20 mg/10 mL in DMSO) as a positive control, and pure DMSO as a negative control; 30 μL of the sample solution was incorporated into these wells. These primed plates were incubated at 37 °C for 24 h prior to record inhibitory zones in millimeters.

Escherichia coli = assay: Antibacterial agar-well diffusion; assay type: cell-based; conditions: sample 100 mg/5 mL in DMSO; ceftriaxone sodium 20 mg/10 mL; 37 °C, 24 h; 6 mm wells
Experimental: as §3

Bacillus pumilus = assay: Antibacterial agar-well diffusion; assay type: cell-based; conditions: sample 100 mg/5 mL in DMSO; ceftriaxone sodium 20 mg/10 mL; 37 °C, 24 h; 6 mm wells
Experimental: as §3

Staphylococcus aureus = assay: Antibacterial agar-well diffusion; assay type: cell-based; conditions: sample 100 mg/5 mL in DMSO; ceftriaxone sodium 20 mg/10 mL; 37 °C, 24 h; 6 mm wells
Experimental: as §3

[1] = DPPH free radical scavenging assay; conditions: 1.0 mL sample 0.5 mg/mL + 2 mL DPPH 0.2 mg/mL, 30 min, 517 nm
Experimental: The DPPH assay was carried out to estimate the antioxidant potential among all the compounds [29]. Then, 2 mL (0.2 mg/mL in methyl alcohol) of DPPH was mixed with 1.0 mL (0.5 mg/mL in methyl alcohol) of the sample solution in a test tube. All the reaction tubes were covered with aluminum foil and kept aside for 30 min to complete the reaction. The activity was carried out in a dark room. […] A UV-visible spectrophotometer was employed to observe a reduction in the concentration of free radicals at 517 nm. The absorbance of the control (1.0 mL methanol + 2 mL DPPH solution) was also measured. All samples were evaluated in a triplicate manner, and the mean results were recorded. The standard antioxidant (ascorbic acid) was evaluated and set as a reference/standard. The percentage of inhibition (%) was calculated using the following formula in terms of scavenging activity(S):S (%) = [(Ab − Aa)/Ab] × 100(1) where Ab = Absorbance of control; and Aa = Absorbance of the test sample

urease = urease (Canavalia ensiformis, UniProt P07374); assay: biochemical; assay type: biochemical
Experimental: The activity performed was an improved procedure of the Berthelot assay. […] For 5 min, the mixture was incubated at 37 °C. Each well in a 96-well plate received 40 µL of urea stock solution (20 mM); incubated for 10 min at 37 °C. Afterwards, 115 µL phenol hypochlorite (45 µL phenol + 70 µL alkali) per well was added. Furthermore, all the contents were incubated for 10 min at 37 °C. Absorbance at 625 nm was measured. Using the provided formula, the % of enzyme-inhibition and IC-50 values were computed Inhibition (%age) = [Control − test/100(control)] where Control = [Total enzyme activity minus inhibitor]. The test is the test compounds’ activity

conscious rats = assay: Antihypertensive effect, systolic blood pressure by tail-cuff method in conscious rats; assay type: in vivo, Wistar rats; conditions: 80 mg/kg intraperitoneally, n = 5, Control 108.28 ± 6.87, DMSO 81.10 ± 3.21
Experimental: as §1, §2

[2] = urease, pH 7.0, 37 °C, read-out: IC50 ± SEM

urease, sequence (P07374 whole entry, looked up): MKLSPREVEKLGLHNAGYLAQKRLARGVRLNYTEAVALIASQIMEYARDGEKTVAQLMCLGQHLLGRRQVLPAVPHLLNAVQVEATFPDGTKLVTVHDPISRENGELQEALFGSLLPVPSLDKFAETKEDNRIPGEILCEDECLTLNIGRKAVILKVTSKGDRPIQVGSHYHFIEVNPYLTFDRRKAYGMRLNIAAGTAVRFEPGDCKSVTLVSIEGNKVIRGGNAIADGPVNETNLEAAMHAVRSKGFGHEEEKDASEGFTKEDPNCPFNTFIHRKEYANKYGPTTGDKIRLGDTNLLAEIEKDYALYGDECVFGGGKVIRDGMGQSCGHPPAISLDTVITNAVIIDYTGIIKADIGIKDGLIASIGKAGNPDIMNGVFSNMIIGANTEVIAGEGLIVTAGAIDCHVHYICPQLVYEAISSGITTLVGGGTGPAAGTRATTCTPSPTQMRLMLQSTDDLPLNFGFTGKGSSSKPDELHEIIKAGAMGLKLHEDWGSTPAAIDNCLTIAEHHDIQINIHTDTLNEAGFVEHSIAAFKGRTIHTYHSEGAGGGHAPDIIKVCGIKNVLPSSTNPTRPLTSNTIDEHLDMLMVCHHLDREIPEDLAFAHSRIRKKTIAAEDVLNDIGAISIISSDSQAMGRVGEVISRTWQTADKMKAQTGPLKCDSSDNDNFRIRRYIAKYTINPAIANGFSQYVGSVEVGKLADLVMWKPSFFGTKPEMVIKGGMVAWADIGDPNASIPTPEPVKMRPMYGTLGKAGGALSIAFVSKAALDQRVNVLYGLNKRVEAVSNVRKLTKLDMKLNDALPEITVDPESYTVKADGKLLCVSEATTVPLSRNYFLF

SMILES	%ge inh. of Phenylephrine Cont. (±SEM) (thoracic aorta segments) [%]	Zone of Inhibition Gram -Ve Bacteria P. aeruginosa Mean ± SEM (Pseudomonas aeruginosa) [millimeters]	Zone of Inhibition Gram -Ve Bacteria E. coli Mean ± SEM (Escherichia coli) [millimeters]	Zone of Inhibition Gram +ve Bacteria B.pumilus Mean ± SEM (Bacillus pumilus) [millimeters]	Zone of Inhibition Gram +ve Bacteria S. aureus Mean ± SEM (Staphylococcus aureus) [millimeters]	%Age Inhibition ± SEM [1] [%]	folds more urease inhibition than standard Thiourea (urease; relative to Thiourea IC50) [folds]	IC50 (urease; [2]) [nM]	inhibition at 100 µM (thoracic aorta segments) [%]	Mean of Systolic Blood Pressure ± SEM (conscious rats)	IC50 (urease) [nM]
CCCCC(=O)N(Cc1ccc(-c2ccccc2-c2nn[nH]n2)cc1)C(C(=O)Oc1ccc(C=O)cc1OC)C(C)C (stereo not shown) [AV2, 4-formyl-2-methoxyphenyl 2(N-((2′-(2H-tetrazole-5-yl)-[1,1′-biphenyl]-4yl)methyl)pentanamido)-3-methyl butanoate]	76.4 ± 6.8	09.33 ± 0.58	11.90 ± 0.26	12.26 ± 0.69	12.90 ± 0.81	96.0 ± 0.49	4	280 ± 150			
CCCCC(=O)N(Cc1ccc(-c2ccccc2-c2nn[nH]n2)cc1)C(C(=O)Oc1ccccc1C(=O)O)C(C)C (stereo not shown) [AV11, 2-((2-(N-((2′-(2H-tetrazole-5-yl)-[1,1′-biphenyl]-4yl)methyl)pentanamido)-3-methylbutanoyl)oxy) benzoic acid]		11.46 ± 0.53	10.01 ± 0.55	10.66 ± 0.52	12.53 ± 0.68	95.6 ± 0.54			70.8 ± 7.7	72.71 ± 3.21	2190 ± 170
CCCCC(=O)N(Cc1ccc(-c2ccccc2-c2nnn[nH]2)cc1)C(C(=O)Oc1ccc(N)cc1)C(C)C (stereo not shown) [AV4, 4-aminophenyl 2-(N-((2′-(2H-tetrazol-5yl) -[1,1′-biphenyl]-4yl)methyl)pentanamido)-3methyl butanoate]		10.31 ± 0.47	10.63 ± 0.40	10.46 ± 0.67	10.16 ± 0.17				69.4 ± 5.4	79.56 ± 2.78	3190 ± 950
CO/N=C(\C(=O)N[C@@H]1C(=O)N2C(C(=O)O)=C(CSc3nc(=O)c(=O)[nH]n3C)CS[C@H]12)c1csc(N)n1 [Ceftriaxone, ceftriaxone sodium, reference compound]		23.33 ± 0.43	21.90 ± 0.18	22.13 ± 0.14	24.60 ± 0.51						
CCCCC(=O)N(Cc1ccc(-c2ccccc2-c2nn[nH]n2)cc1)C(C(=O)Oc1ccc(CC(N)C(=O)O)cc1)C(C)C (stereo not shown) [AV7, 3-(4-((2-(N-((2′-(2H-tetrazol-5yl)-[1,1′-biphenyl]-4 yl)methyl)pentanamido)-3methylbutanoyl)oxy)phenyl)-2amino-propanoic acid]		10.76 ± 0.53	10.96 ± 0.18	11.13 ± 0.80	12.10 ± 0.37				62.4 ± 2.7	85.61 ± 3.32	8590 ± 1120
CCCCC(=O)N(Cc1ccc(-c2ccccc2-c2nn[nH]n2)cc1)C(C(=O)Oc1cccc2ccccc12)C(C)C (stereo not shown) [AV9, naphthalen-1-yl 2-(N-((2′-(2H-tetrazol-5-yl)-[1,1′-biphenyl]-4 yl)methyl)pentanamido)-3methyl butanoate]	68.3 ± 4.7	10.90 ± 0.40	09.73 ± 0.23	12.76 ± 0.84	14.40 ± 0.37	83.8 ± 0.64		2260 ± 1040			
O=C1O[C@H]([C@@H](O)CO)C(O)=C1O [Ascorbic acid, reference compound]						96.4 ± 0.52					
NC(N)=S [Standard Thiourea, Thiourea, reference compound]								4240 ± 130			
